The target of experiment [1] is T1, isolated kinase domain of the human FLT3 receptor (a.a. 571-993) (Homo sapiens, UniProt P36888).
T1 construct: human FLT3 receptor (a.a. 571-993)
T1 sequence (P36888 571-993): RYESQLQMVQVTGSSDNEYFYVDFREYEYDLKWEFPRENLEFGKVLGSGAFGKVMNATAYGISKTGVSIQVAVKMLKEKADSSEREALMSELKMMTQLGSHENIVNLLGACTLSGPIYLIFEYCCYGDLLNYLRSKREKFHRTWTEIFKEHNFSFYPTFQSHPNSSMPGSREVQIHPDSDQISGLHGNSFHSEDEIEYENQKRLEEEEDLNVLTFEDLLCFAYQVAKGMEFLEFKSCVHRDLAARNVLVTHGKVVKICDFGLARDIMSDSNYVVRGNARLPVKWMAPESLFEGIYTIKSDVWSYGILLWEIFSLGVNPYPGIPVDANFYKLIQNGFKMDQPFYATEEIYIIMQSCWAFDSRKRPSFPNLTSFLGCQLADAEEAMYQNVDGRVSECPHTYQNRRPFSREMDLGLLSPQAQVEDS
As to the kind of experiment: FLT3 fluorescence polarization kinase assay. In kind it is biochemical. As to conditions: 150 uM ATP; uncertainty ±10%.

For another experiment, the system named is MV4-11 cells. In words: Inhibition of MV4-11 cell proliferation (CellTiterGlo, 72 h). As to conditions: Homo sapiens; 72 h growth inhibition; uncertainty ±20%. It counts as cell-based. For orientation: ATP-based viability assays read luminescence as a measure of living cells.

Drawing on patent US20070004660A1, “Synergistic Modulation of Flt3 Kinase Using Alkylquinolines and Alkylquinazolines” (priority 2005, published 2007), this text covers IC50 for 11 molecules.

Take `O=C1CCCN1CCCOc1ccc2c(C3CCN(C(=O)Nc4cnc(N5CCCC5)nc4)CC3)ncnc2c1` [Example 90, 4-{7-[3-(2-Oxo-pyrrolidin-1-yl)-propoxy]-quinazolin-4-yl}-piperidine-1-carboxylic acid (2-pyrrolidin-1-yl-pyrimidin-5-yl)-amide]: the IC50 in experiment [1] was 73 nM; in the experiment on MV4-11 cells it was 187 nM.

In the case of `O=C1CCCN1CCOc1ccc2c(C3CCN(C(=O)Nc4cnc(N5CCCC5)nc4)CC3)ncnc2c1` [Example 84, 4-{7-[2-(2-Oxo-pyrrolidin-1-yl)-ethoxy]-quinazolin-4-yl}-piperidine-1-carboxylic acid (2-pyrrolidin-1-yl-pyrimidin-5-yl)-amide], the IC50 in experiment [1] worked out at 41 nM; in the experiment on MV4-11 cells, 74 nM.

For the molecule `CC(C)Oc1ccc(NC(=O)N2CCC(c3ncnc4cc(NCCCN5CCN(C)CC5)ccc34)CC2)cc1` [Example 102, 4-{7-[3-(4-Methyl-piperazin-1-yl)-propylamino]-quinazolin-4-yl}-piperidine-1-carboxylic acid (4-isopropoxy-phenyl)-amide], the IC50 in experiment [1] came to 5 nM; in the experiment with MV4-11 cells, 18 nM.

In the case of `CN1CCC(COc2ccc3c(C4CCN(C(=O)Nc5ccc(N6CCOCC6)nc5)CC4)ncnc3c2)CC1` [Example 108, 4-[7-(1-Methyl-piperidin-4-ylmethoxy)-quinazolin-4-yl]-piperidine-1-carboxylic acid (6-morpholin-4-yl-pyridin-3-yl)-amide], the IC50 in experiment [1] was 4 nM; in the experiment on MV4-11 cells, 173 nM.

On to `CC(C)Oc1ccc(NC(=O)N2CCC(c3ncnc4ccc(C#CCN5CCCCC5)cc34)CC2)cc1` [Example 14, 4-[6-(3-Piperidin-1-yl-prop-1-ynyl)-quinazolin-4-yl]-piperidine-1-carboxylic acid (4-isopropoxy-phenyl)-amide], for which the IC50 stood at 53 nM in experiment [1] and 23 nM in the experiment on MV4-11 cells.

In the case of `COc1cc2ncnc(C3CCN(C(=O)Nc4ccc(N5CCCC5=O)cc4)CC3)c2cc1OC` [Example 57, 4-(6,7-Dimethoxy-quinazolin-4-yl)-piperidine-1-carboxylic acid [4-(2-oxo-pyrrolidin-1-yl)-phenyl]-amide], the IC50 in experiment [1] was found to be 700 nM; with MV4-11 cells it was 1200 nM.

`CS(=O)(=O)NCCCOc1ccc2c(C3CCN(C(=O)Nc4ccc(OC5CCCC5)nc4)CC3)ncnc2c1` [Example 88, 4-[7-(3-Methanesulfonylamino-propoxy)-quinazolin-4-yl]-piperidine-1-carboxylic acid (6-cyclopentyloxy-pyridin-3-yl)-amide]: the IC50 in experiment [1] turned out to be 2 nM; with MV4-11 cells, 37 nM.

For the molecule `CC(C)Oc1ccc(NC(=O)N2CCC(c3ncnc4ccc(OCCCN5CCCC5=O)cc34)CC2)cc1` [Example 101, 4-{6-[3-(2-Oxo-pyrrolidin-1-yl)-propoxy]-quinazolin-4-yl}-piperidine-1-carboxylic acid (4-isopropoxy-phenyl)-amide], the IC50 in experiment [1] came to 0.8 nM; in the experiment on MV4-11 cells, 34 nM.

Consider `CN1CCC(COc2ccc3c(C4CCN(C(=O)Nc5ccc(N6CCCC6)nc5)CC4)ncnc3c2)CC1` [Example 99, 4-[7-(1-Methyl-piperidin-4-ylmethoxy)-quinazolin-4-yl]-piperidine-1-carboxylic acid (6-pyrrolidin-1-yl-pyridin-3-yl)-amide], for which the IC50 is 1 nM in experiment [1] and 58 nM with MV4-11 cells.

Turning to `CC(=O)N1CCN(CCCOc2ccc3c(C4CCN(C(=O)Nc5ccc(N6CCOCC6)cc5)CC4)ncnc3c2)CC1` [Example 117, 4-{7-[3-(4-Acetyl-piperazin-1-yl)-propoxy]-quinazolin-4-yl}-piperidine-1-carboxylic acid (4-morpholin-4-yl-phenyl)-amide], the IC50 is 94 nM in experiment [1] and 171 nM in the experiment with MV4-11 cells.

`O=C(Nc1ccc(N2CCOCC2)cc1)N1CCC(c2ncnc3cc(OCCCN4CCCC4)ccc23)CC1` [Example 124, 4-[7-(3-Pyrrolidin-1-yl-propoxy)-quinazolin-4-yl]-piperidine-1-carboxylic acid (4-morpholin-4-yl-phenyl)-amide]: the IC50 in experiment [1] worked out at 21 nM; with MV4-11 cells it was 47 nM.

As usually defined, the IC50 is the concentration at which inhibition is half-maximal. A low value points to higher potency.
